Reference: patent US10894811B2, “Peptide inhibitors of calcium channels” (The University of North Carolina at Chapel Hill, priority 2016, dated 2021)
“Also recorded” adds a separate entry of the source.

Experiments:
[1] = test system: house dust mite-exposed mouse; experiment: House dust mite allergy model, bronchoalveolar lavage cell counts; assay type: in vivo; conditions: SPLUNC1−/− mice, HDM challenge, day 17
Experimental: Nasal instillation of α6 peptides to mice: SPLUNC1^(−/−) mice were exposed to 2 μg house dust mite extract in 40 μl of PBS intranasally on days 0 and day 7. After this time, they were again challenged intranasally with 20 μg HDM in 40 μl of PBS from day 14 to day 16. We Then 320 μM of the short α6 peptide was added intranasally once per day on day 15 and on day 16 and the animals sacrificed on day 17. Bronchoalveolar lavage total and differential cell counts were performed using a Kwik-Diff™ Stain Kit (Thermo Scientific). After sacrificing the animals, blood was obtained by cardiac puncture and plasma was taken by spinning down whole blood. Serum HDM-specific antibody levels were measured using an enzyme-linked immunosorbent assay (ELISA). Briefly, plates were coated overnight with 0.01% HDM in PBS and blocked with 1% BSA in PBS before the addition of serum samples that had been diluted 1:10 in blocking buffer and standards for 1 h. Plates were washed 6× with PBS containing 0.05% Tween-20 before incubation with biotinylated anti-mouse IgE (Pharmingen) at a concentration of 2 μg/ml for 1 h. Plates were washed an additional six times, streptavidin-HRP (R&D Systems) was added for 30 min and the amount of bound HDM-specific antibody was determined using TMB substrate (Thermo Scientific). To test whether α6 peptides were efficacious in vivo, a well-characterized murine allergy model was used, the house dust mite-exposed mouse (Wu T et al., Nature Communications, 2017). Since SPLUNC1^(−/−) mice have asthma-like symptoms including spontaneous inflammation and airway hyperreactivity (Wu T et al., Nature Communications, 2017; Thaikoottathil et al., Am. J. Respir. Cell Mol. Biol. 47:253 (2012)), SPLUNC1^(−/−) mice were exposed to 20 μg HDM intranasally on day 0 and […]. After this time, they were challenged with 20 μg HDM intranasally from day 14 to day 17. […] of the short α6 peptide was administered intranasally once per day on day 15 and on day 16 and sacrificed the animals were sacrificed on day 17. Bronchoalveolar lavage was performed and total and differential cell counts performed (FIG. 15).

[2] = test system: house dust mite-exposed mouse; experiment: House dust mite allergy model, HDM-specific IgE by ELISA; assay type: in vivo; conditions: SPLUNC1−/− mice, HDM challenge; α6 peptide intranasally day 15 and day 16; serum on day 17
Experimental: Nasal instillation of α6 peptides to mice: SPLUNC1^(−/−) mice were exposed to 2 μg house dust mite extract in 40 μl of PBS intranasally on days 0 and day 7. After this time, they were again challenged intranasally with 20 μg HDM in 40 μl of PBS from day 14 to day 16. We Then 320 μM of the short α6 peptide was added intranasally once per day on day 15 and on day 16 and the animals sacrificed on day 17. Bronchoalveolar lavage total and differential cell counts were performed using a Kwik-Diff™ Stain Kit (Thermo Scientific). After sacrificing the animals, blood was obtained by cardiac puncture and plasma was taken by spinning down whole blood. Serum HDM-specific antibody levels were measured using an enzyme-linked immunosorbent assay (ELISA). Briefly, plates were coated overnight with 0.01% HDM in PBS and blocked with 1% BSA in PBS before the addition of serum samples that had been diluted 1:10 in blocking buffer and standards for 1 h. […] Plates were washed an additional six times, streptavidin-HRP (R&D Systems) was added for 30 min and the amount of bound HDM-specific antibody was determined using TMB substrate (Thermo Scientific). […] Using the same SPLUNC1^(−/−) mice/HDM challenge as described in FIG. 15, serum was obtained on day 17 and IgE measured by ELISA.

[3] = test system: hASMCs; experiment: Calcium imaging using fura-2 (thapsigargin-induced Ca2+ signaling); assay type: cell-based, human; conditions: for thapsigargin (TG)-induced Ca2+ flux (peak fura-2 ratio change): human ASMCs, co-incubated 1 h; for ability to suppress Ca2+ signaling, SPLUNC1 mutants/peptides: ASMCs pre-incubated with truncated SPLUNC1 peptides (FIG. 4H)
Experimental: Calcium imaging: Calcium imaging using fura-2 was adapted from a previous published protocol with minor modifications (Sheridan et al., J. Biol. Chem. 288:33509 (2013)). Briefly, hASMCs were loaded with 2 μM fura-2 AM (Invitrogen) and serosal media from HBEC cultures or recombinant SPLUNC1 at 37° C. for 1 h. Cultures were washed with a standard Ringer's solution (101 mM NaCl, 12 mM NaHCO3, 1.2 mM MgCl2, 1.2 mM CaCl2, […], 24 mM HEPES, 10 mM glucose, pH 7.4) or with Ca^2+-free Ringer's solution as indicated. Cultures were then placed in the Ringer's solution, and images were collected with a 40×1.4 NA oil objective on a Nikon Ti-S inverted microscope. Fura-2 fluorescence was acquired alternately at 340 and 380 nm (emission >450 nm) using LUDL filter wheels, obtained with an Orca FLASH 4.0 CMOS camera (Hammamatsu), and controlled with HCImageLive software. Cell bodies were identified as individual regions of interest (ROIs). Background subtraction was performed using a region without the cell. Signals were converted to relative changes (F/F0) where F0 was the ratio of the average fluorescent intensity (340/380) of ROIs at 0 time point. A total of 20 cells/coverslip were recorded. ΔF/F0 represents average peak fluorescent intensity changes of three independent experiments.

DITLVHDIVNMLIHG (listed as Homo sapiens) [SEQ ID NO:3, amino acids 235-249 of human SPLUNC1]
eosinophil influx (bronchoalveolar lavage) ([1]; peptide 320 μM / 320 μM intranasally once per day on day 15 and day 16): decreased
bronchoalveolar lavage total cell count ([1]; peptide 320 μM / 320 μM intranasally once per day on day 15 and day 16, listed as short α6 peptide): significantly reduced
bronchoalveolar lavage total cell count ([1]; peptide 320 μM / 320 μM intranasally once per day on day 15 and day 16, listed as α6 peptide): reduce inflammatory cell counts
neutrophil influx (bronchoalveolar lavage) ([1]; peptide 320 mM / 320 μM intranasally once per day on day 15 and day 16): decreased
plasma (serum) HDM-specific IgE levels [2]: significantly reduced; also recorded: reduce blood IgE levels

DITLVHDIVNMLIHGLQFVIKV (listed as Homo sapiens) [SEQ ID NO:2, amino acids 235-256 of human SPLUNC1]
thapsigargin (TG)-induced Ca2+ flux (peak fura-2 ratio change) [3]: inhibited
thapsigargin (TG)-induced Ca2+ flux (peak fura-2 ratio change) ([3]; listed as SPLUNC1 derived peptide): inhibits thapsigargin-induced Ca^2+ release

S18: N-terminal S18 region of SPLUNC1, its ENaC regulatory domain; synthesized peptide (GGLPVPLDQTLPLNVNPA) [reference compound]
ability to suppress Ca2+ signaling, SPLUNC1 mutants/peptides [3]: did not inhibit SOCE

B1: mouse SPLUNC1: mouse SPLUNC1 protein (protein)
chain: QLAGLPLPLGQGPPLPLNQGPPLPLNQGQLLPLAQGLPLAVSPALPSNPTDLLAGKFTDALSGGLLSGGLLGILENIPLLDVIKSGGGNSNGLVGGLLGKLTSSVPLLNNILDIKITDPQLLELGLVQSPDGHRLYVTIPLGLTLNVNMPVVGSLLQLAVKLNITAEVLAVKDNQGRIHLVLGDCTHSPGSLKISLLNGVTPVQSFLDNLTGILTKVLPELIQGKVCPLVNGILSGLDVTLVHNIAELLIHGLQFVIKV
ability to suppress Ca2+ signaling, SPLUNC1 mutants/peptides [3]: Inhibition was not different
